Assay results: patent US12545637B2, “Extrahepatic targeted cationic lipid compound with high efficiency and low toxicity and its composition” (BEIJING YOUCARE KECHUANG PHARMACEUTICAL TECHNOLOGY CO., LTD., priority 2023, dated 2026)

Key:
female BALB/C mice = experiment: In vivo imaging in mice of Fluc-mRNA LNP formulations (mRNA expression and duration); conditions: for average radiation intensity, 6 h / average radiation intensity, 24 h / average radiation intensity, 48 h / average radiation intensity, 7 d: Fluc-mRNA LNP intramuscular; for average radiation intensity, 6 h: 6 h after administration; for average radiation intensity, 24 h: 24 h after administration; for average radiation intensity, 48 h: 48 h after administration; for average radiation intensity, 7 d: 7 d after administration
Summary of the method: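 Female BALB/C mice (4-6 weeks, 17-19 g) received LNP carrying […] Fluc-mRNA intramuscularly. At 6h, 24 h, 48h and 7d, fluorescent imaging substrate was given intraperitoneally and after 5 minutes average radiance, as a measure of expressed protein, was imaged on an IVIS Spectrum system.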

293T cells [1] = experiment: Fluorescent detection of Fluc-mRNA (cell transfection efficiency of LNP formulations); type: cell-based; conditions: for Relative light unit (RLU): LNP with 0.3 μg Fluc-mRNA, 96-well plate, 24 hours; for cell transfection efficiency, times that of YK-415: ratio vs YK-415; for cell transfection efficiency, times that of YK-417: ratio vs YK-417; for cell transfection efficiency, times that of YK-418: ratio vs YK-418; for cell transfection efficiency, times that of YK-424: ratio vs YK-424; for RLU value, times that of compound 21: ratio vs compound 21; for RLU value, times that of compound 23: ratio vs compound 23
293T cells [2] = experiment: as above; type: cell-based; conditions: for RLU value, times that of ALC-0315: ratio vs ALC-0315; for RLU value, times that of HHMA: ratio vs HHMA; for RLU value, times that of Lipofectamine 3000: ratio vs Lipofectamine 3000; for RLU value, times that of YK-009: ratio vs YK-009; for RLU value, times that of YK-405: ratio vs YK-405; for RLU value, times that of YK-406: ratio vs YK-406; for RLU value, times that of YK-408: ratio vs YK-408; for RLU value, times that of YK-409: ratio vs YK-409; for RLU value, times that of YK-410: ratio vs YK-410; for cell transfection efficiency, times that of YK-412: ratio vs YK-412; for cell transfection efficiency, times that of YK-413: ratio vs YK-413; for cell transfection efficiency, times that of YK-414: ratio vs YK-414; for cell transfection efficiency, times that of YK-416: ratio vs YK-416; for cell transfection efficiency, times that of YK-419: ratio vs YK-419; for cell transfection efficiency, times that of YK-420: ratio vs YK-420; for cell transfection efficiency, times that of YK-421: ratio vs YK-421
293T cells [3] = experiment: Cell transfection test of LNP formulation of eGFP-mRNA (optimization of preparation conditions); type: cell-based; conditions: for transfection efficiency at different molar ratios of polymer-conjugated lipid DMG-PEG2000 to carrier: 0.5% to 15%; for transfection effect at different molar ratios of cationic lipid, neutral lipid, structured lipid and polymer-conjugated lipid: 75:5:15:5 to 25:5:65:5
Description: The cationic lipid compound YK-407 synthesized in Example 1 was dissolved in ethanol with DSPC (AVT (Shanghai) Pharmaceutical Technology Co., Ltd.), cholesterol (AVT (Shanghai) Pharmaceutical Technology Co., Ltd.) and DMG-PEG2000 according to a molar ratio of 49:10:39.5:1.5, respectively, to prepare an ethanol lipid solution. The ethanol lipid solution was quickly added to citrate buffer (pH=4-5) by ethanol injection method, and vortexed for 30s for later use. eGFP-mRNA was diluted in citrate buffer (pH=4-5) to give an aqueous mRNA solution. A certain volume of liposome solution and mRNA aqueous solution were used to prepare liposomes at weight ratios of total lipids to mRNA of 5:1, 10:1, 15:1, 20:1, 30:1 and 35:1, respectively. The mixtures were sonicated at 25° C. for 15 min (with an ultrasonic frequency of 40 kHz and an ultrasonic power of 800 W). The resulted liposomes were diluted to 10 times volume with PBS, and then ultrafiltered with a 300KDa ultrafiltration tube to remove ethanol. Then the volume was fixed to a certain volume with PBS to give an LNP formulation encapsulating eGFP-mRNA using cationic lipid YK-407/DSPC/cholesterol/DMG-PEG2000 (49:10:39.5:1.5 in molar percentage).
The LNP formulation encapsulating eGFP-mRNA was prepared according to the method in 1, wherein the molar ratios of cationic lipid YK-407 to neutral lipid DSPC were 1:1, 3:1, 3.5:1, 4:1, 4.5:1, 4.9:1, 10:1, 15:1 and 20:1.
The LNP formulation encapsulating eGFP-mRNA was prepared according to the method in 1, wherein the cationic lipid in the carrier was YK-407, and the molar ratios of the polymer-conjugated lipid DMG-PEG2000 to the carrier were 0.5%, 1.5%, 3.5%, 5%, 10% and 15%, respectively.
The LNP formulation encapsulating eGFP-mRNA was prepared according to the method in 1, wherein the molar ratios of cationic lipid YK-407, neutral lipid DSPC, structured lipid cholesterol and polymer-conjugated lipid DMG-PEG2000 were 75:5:15:5, 49:10:39.5:1.5, 45:10:43.5:1.5, 45:25:20:10, 40:10:48.5:1.5, 35:10:53.5:1.5 and 25:5:65:5, respectively.
Cell recovery and passage: 293T cells were recovered, cultured in a culture dish, and passaged to the required number of cells.
Seeding plate: The cells in the culture dish were digested and counted. Cells were spread in a 96-well plate at 10,000 cells per well and in a 12-well plate at 150,000 cells per well. Cells were cultured overnight until the cells adhered to the wall.
Cell transfection test: The LNP formulation containing 1.5 μg of eGFP-mRNA prepared in Example 2 (the cationic lipid in the carrier was YK-407) and the Lipofectamin 3000 formulation of eGFP-mRNA were added respectively to the cell culture medium of the 12-well plate, and further incubated for 24 hours. The transfection efficiency of different samples was then investigated according to the fluorescence intensity by observing with a fluorescence microscope.

## CCCCCCCCC(CCCCCCCC)OC(=O)CCCCCCCN(CCO)CCN(CCO)CCCCCCCC(=O)OC(CCCCCCCC)CCCCCCCC [YK-403, di(heptadecan-9-yl) 8, 8′-(ethane-1,2-diyl-bis((2-hydroxyethyl)azanediyl))dioctanoate]
Female BALB/C mice; 6 h
  average radiation intensity, times that of ALC-0315: 1.89
  average radiation intensity, times that of HHMA: 2.40
  average radiation intensity, times that of SM-102: 2.30
  average radiation intensity, times that of compound 21: 2.65
  average radiation intensity, times that of compound 23: 2.73
  expression amount in mice, times that of YK-415: 13.48
  expression amount in mice, times that of YK-417: 26.26
  mRNA expression in mice, times that of YK-411: 271.52
Female BALB/C mice; 24 h
  average radiation intensity, times that of ALC-0315: 4.51
  average radiation intensity, times that of HHMA: 7.13
  average radiation intensity, times that of SM-102: 6.93
  average radiation intensity, times that of compound 21: 7.70
  average radiation intensity, times that of compound 23: 8.47
  expression amount in mice, times that of YK-415: 13.26
  expression amount in mice, times that of YK-417: 42.79
  mRNA expression in mice, times that of YK-411: 422.95
Female BALB/C mice; 48 h
  average radiation intensity, times that of ALC-0315: 7.69
  average radiation intensity, times that of HHMA: 9.25
  average radiation intensity, times that of SM-102: 9.39
  average radiation intensity, times that of compound 21: 9.78
  average radiation intensity, times that of compound 23: 9.37
  expression amount in mice, times that of YK-415: 19.54
  expression amount in mice, times that of YK-417: 43.80
  mRNA expression in mice, times that of YK-411: 316.45
Female BALB/C mice; 7 d
  average radiation intensity, times that of ALC-0315: 1.41
  average radiation intensity, times that of HHMA: 1.65
  average radiation intensity, times that of SM-102: 1.47
  average radiation intensity, times that of compound 21: 1.55
  average radiation intensity, times that of compound 23: 1.61
  expression amount in mice, times that of YK-415: 2.44
  expression amount in mice, times that of YK-417: 4.32
  mRNA expression in mice, times that of YK-411: 20.54
Female BALB/C mice
  average radiation intensity, 6 h: 1588400
  average radiation intensity, 24 h: 855204
  average radiation intensity, 48 h: 308540
  average radiation intensity, 7 d: 9857
293T cells [1]
  Relative light unit (RLU): 5249304 RLU
  cell transfection efficiency, times that of YK-415: 17.61
  cell transfection efficiency, times that of YK-417: 44.76
  cell transfection efficiency, times that of YK-418: 47.18
  cell transfection efficiency, times that of YK-424: 1.82
  RLU value, times that of compound 21: 3.47
  RLU value, times that of compound 23: 3.74
293T cells [2]
  RLU value, times that of ALC-0315: 2.40
  RLU value, times that of HHMA: 2.52
  RLU value, times that of Lipofectamine 3000: 4.37
  RLU value, times that of YK-009: 1.02
  RLU value, times that of YK-405: 1.64
  RLU value, times that of YK-406: 67.08
  RLU value, times that of YK-408: 3.56
  RLU value, times that of YK-409: 7.84
  RLU value, times that of YK-410: 12.87
  cell transfection efficiency, times that of YK-412: 1.56
  cell transfection efficiency, times that of YK-413: 3.81
  cell transfection efficiency, times that of YK-414: 11.82
  cell transfection efficiency, times that of YK-416: 1.32
  cell transfection efficiency, times that of YK-419: 1.66
  cell transfection efficiency, times that of YK-420: 1.31
  cell transfection efficiency, times that of YK-421: 11.25
293T cells [3]
  transfection efficiency at different molar ratios of polymer-conjugated lipid DMG-PEG2000 to carrier: same results
  transfection effect at different molar ratios of cationic lipid, neutral lipid, structured lipid and polymer-conjugated lipid: same results

## CCCCCCCCC(CCCCCCCC)COC(=O)CCCCCN(CCCO)CCCN(CCCO)CCCCCC(=O)OCC(CCCCCCCC)CCCCCCCC [YK-423, di(2-octyldecyl) 6,6′-(propan-1,3-diyl-bis((3-hydroxypropyl)azanediyl))dihexanoate]
Female BALB/C mice; 6 h
  average radiation intensity, times that of ALC-0315: 1.94
  average radiation intensity, times that of HHMA: 2.46
  average radiation intensity, times that of SM-102: 2.35
  average radiation intensity, times that of compound 21: 2.71
  average radiation intensity, times that of compound 23: 2.80
  expression amount in mice, times that of YK-415: 13.81
  expression amount in mice, times that of YK-417: 26.91
  mRNA expression in mice, times that of YK-411: 278.19
Female BALB/C mice; 24 h
  average radiation intensity, times that of ALC-0315: 3.99
  average radiation intensity, times that of HHMA: 6.30
  average radiation intensity, times that of SM-102: 6.13
  average radiation intensity, times that of compound 21: 6.81
  average radiation intensity, times that of compound 23: 7.49
  expression amount in mice, times that of YK-415: 11.73
  expression amount in mice, times that of YK-417: 37.85
  mRNA expression in mice, times that of YK-411: 374.12
Female BALB/C mice; 48 h
  average radiation intensity, times that of ALC-0315: 8.73
  average radiation intensity, times that of HHMA: 10.50
  average radiation intensity, times that of SM-102: 10.65
  average radiation intensity, times that of compound 21: 11.10
  average radiation intensity, times that of compound 23: 10.64
  expression amount in mice, times that of YK-415: 22.17
  expression amount in mice, times that of YK-417: 49.70
  mRNA expression in mice, times that of YK-411: 359.10
Female BALB/C mice; 7 d
  average radiation intensity, times that of ALC-0315: 1.44
  average radiation intensity, times that of HHMA: 1.69
  average radiation intensity, times that of SM-102: 1.50
  average radiation intensity, times that of compound 21: 1.58
  average radiation intensity, times that of compound 23: 1.65
  expression amount in mice, times that of YK-415: 2.50
  expression amount in mice, times that of YK-417: 4.42
  mRNA expression in mice, times that of YK-411: 21.03
Female BALB/C mice
  average radiation intensity, 6 h: 1627420
  average radiation intensity, 24 h: 756472
  average radiation intensity, 48 h: 350120
  average radiation intensity, 7 d: 10093
293T cells [1]
  Relative light unit (RLU): 6227115 RLU
  cell transfection efficiency, times that of YK-415: 20.89
  cell transfection efficiency, times that of YK-417: 53.09
  cell transfection efficiency, times that of YK-418: 55.97
  cell transfection efficiency, times that of YK-424: 2.16
  RLU value, times that of compound 21: 4.12
  RLU value, times that of compound 23: 4.44
293T cells [2]
  RLU value, times that of ALC-0315: 2.84
  RLU value, times that of HHMA: 3.00
  RLU value, times that of Lipofectamine 3000: 5.19
  RLU value, times that of YK-009: 1.21
  RLU value, times that of YK-405: 1.95
  RLU value, times that of YK-406: 79.58
  RLU value, times that of YK-408: 4.22
  RLU value, times that of YK-409: 9.30
  RLU value, times that of YK-410: 15.27
  cell transfection efficiency, times that of YK-412: 1.85
  cell transfection efficiency, times that of YK-413: 4.52
  cell transfection efficiency, times that of YK-414: 14.02
  cell transfection efficiency, times that of YK-416: 1.57
  cell transfection efficiency, times that of YK-419: 1.97
  cell transfection efficiency, times that of YK-420: 1.55
  cell transfection efficiency, times that of YK-421: 13.35
293T cells [3]
  transfection efficiency at different molar ratios of polymer-conjugated lipid DMG-PEG2000 to carrier: same results
  transfection effect at different molar ratios of cationic lipid, neutral lipid, structured lipid and polymer-conjugated lipid: same results
